Data from ChEMBL document CHEMBL1122462, “Potential antiatherosclerotic agents. 4. [(Functionalized-alkyl)amino]benzoic acid analogues of cetaben” (1983).
“And” between values parts separate entries of the source, which are not always exact repeats. Identical values can stand only once.

How the values were obtained:
[1] = biological target: T1, Sterol O-acyltransferase 1 (Rattus norvegicus) (UniProt O70536); test: In vitro inhibitory activity against acyl coenzyme A:cholesterol acyltransferase; design: concentration or dose not given beside the values; settings: concentration not given here
T1 sequence (whole entry): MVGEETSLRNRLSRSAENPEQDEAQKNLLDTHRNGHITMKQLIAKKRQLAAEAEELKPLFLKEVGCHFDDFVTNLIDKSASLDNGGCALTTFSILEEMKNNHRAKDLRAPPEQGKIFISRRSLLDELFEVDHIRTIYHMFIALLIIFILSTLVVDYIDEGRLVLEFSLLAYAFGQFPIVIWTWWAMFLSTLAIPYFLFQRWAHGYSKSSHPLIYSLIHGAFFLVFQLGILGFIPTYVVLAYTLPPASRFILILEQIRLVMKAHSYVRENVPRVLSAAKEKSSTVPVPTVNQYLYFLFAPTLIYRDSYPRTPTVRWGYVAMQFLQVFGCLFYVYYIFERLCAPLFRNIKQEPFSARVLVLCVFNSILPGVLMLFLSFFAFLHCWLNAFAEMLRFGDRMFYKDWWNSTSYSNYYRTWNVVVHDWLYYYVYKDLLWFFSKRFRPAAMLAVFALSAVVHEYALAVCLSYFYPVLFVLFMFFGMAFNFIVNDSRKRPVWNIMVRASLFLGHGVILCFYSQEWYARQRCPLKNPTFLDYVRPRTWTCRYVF

Rattus norvegicus [2] = test: In vivo sterol lowering activity at dose of 0.10 % of the diet; assay type: functional
Rattus norvegicus [3] = test: In vivo Triglyceride lowering activity at a dose of 0.10 % of the diet; assay type: functional
Rattus norvegicus [4] = test: In vivo Triglyceride lowering activity at dose as 0.03 % of the diet; assay type: functional
Rattus norvegicus [5] = test: In vivo sterol lowering activity, dosed as 0.03 % of the diet; assay type: functional
Rattus norvegicus [6] = test: In vivo Triglyceride lowering activity at dose as 0.01 % of the diet; assay type: functional
Rattus norvegicus [7] = test: In vivo Sterol lowering activity at dose as 0.01% of the diet; assay type: functional

SMILES	inhibition [1]	serum sterol level, % of control (Rattus norvegicus [2]) [%]	serum triglyceride level (% of control) (Rattus norvegicus [3]) [%]	triglyceride lowering activity (Rattus norvegicus [4]) [%]	serum sterol level, percent of control (Rattus norvegicus [5]) [%]	serum triglyceride level (% of control) (Rattus norvegicus [6]) [%]	serum sterol level, percent of control (Rattus norvegicus [7]) [%]
COC(=O)c1ccc(NC(=O)CCCCCCCCCCOc2ccc(C(=O)OC)cc2)cc1	< 63%	94	118	–	–	–	–
C[Si](C)(C)CCCCCCCCCCCCCCNc1ccc(C(=O)[O-])cc1.[Na+]	–	<39	<22	<43	<56	<55	75
CCCCCCCCCCCCCCCC(=O)Nc1ccc(C(=O)OCC)cc1	–	91	–	–	–	–	–
CC(C)(C)CCCCCCCCCCCCCCNc1ccc(C(=O)O)cc1 [listing 1 of 2 here]	–	<48	<20	<42	<53	<59	<69
CC(C)(C)CCCCCCCCCCCCCCNc1ccc(C(=O)[O-])cc1.[Na+]	–	<44	<30	<55	<53	<66	<72
C[Si](C)(C)CCCCCCCCCCCNc1ccc(C(=O)[O-])cc1.[Na+]	–	<48	<46	88	<73	122	<81
C[Si](C)(C)CCCCCCCCCCCCCCNc1ccc(C(=O)O)cc1	–	<40	<30	<38	<51	<59	<70
CCCCCCCCCCCCCCCCN(CS(=O)(=O)[O-])c1ccc(C(=O)O)cc1.[Na+]	–	<72	<49	<57	<87	79	91
C[Si](C)(C)CCCNc1ccc(C(=O)[O-])cc1.[Na+]	–	<64	<77	85	<82	102	87
C[Si](C)(C)CCCNc1ccc(C(=O)O)cc1 [listing 2 of 2 here]	–	<82	<47	<58	90	<69	100

Continued, in another order:

inhibition [1]	SMILES	serum sterol level, % of control (Rattus norvegicus [2]) [%]	serum triglyceride level (% of control) (Rattus norvegicus [3]) [%]	triglyceride lowering activity (Rattus norvegicus [4]) [%]	serum sterol level, percent of control (Rattus norvegicus [5]) [%]	serum triglyceride level (% of control) (Rattus norvegicus [6]) [%]	serum sterol level, percent of control (Rattus norvegicus [7]) [%]
12%	CCOC(=O)c1ccc(NCCCCCCCCCCCC2CCCCC2)cc1	80	<50	–	–	–	–
0% and 9%	O=C(O)CCCCCCCCCCCCCCCNc1ccc(C(=O)O)cc1	–	–	–	–	–	–
< 10%	CCOC(=O)c1ccc(NCCCCCCCCCCCCCCCCSCC)cc1	<89	<58	–	–	–	–
< 51%	CCCCCCCCCCC(O)CCCCCNc1ccc(C(=O)OCC)cc1 (configuration not stated)	93	<39	–	–	–	–
8%	O=C(O)c1ccc(NCCCCCCCCCCNc2ccc(C(=O)O)cc2)cc1	93	100	–	–	–	–
< 74%	CC(C)(C)CCCCCCCCCCCCCCNc1ccc(C(=O)O)cc1 [listing 2 of 2 here]	–	–	–	–	–	–
< 60%	CCOC(=O)c1ccc(NCCCCCCCCCCCO)cc1	94	93	–	–	–	–
< 52%	CCOC(=O)c1ccc(NCCCCCCCCCCCOc2ccc(C(=O)OC)cc2)cc1	100	<72	–	–	–	–
< 26%	CCCCCCCCCCC(CCCCCNc1ccc(C(=O)OCC)cc1)SC(C)=O (configuration not stated)	94	<46	–	–	–	–
8%	CCOC(=O)c1ccc(NCCCCCCCCCCCCCCCCS)cc1	90	<51	–	–	–	–
< 68%	CCOC(=O)c1ccc(NCCCCCCCCCCCNc2ccc(C(=O)OCC)cc2)cc1	92	67	–	–	–	–
< 23% and 12%	C[Si](C)(C)CCCNc1ccc(C(=O)O)cc1 [listing 1 of 2 here]	–	–	–	–	–	–
